Laboratory results published in ChEMBL document CHEMBL1151131, “Bioactivity of the essential oil of Bupleurum fruticosum” (1989).
The source made the active and inactive calls. The rule behind the calls is not given here.

Tests used:
Rattus norvegicus [1] = experiment: Antiinflammatory activity against carrageenan-induced plantar edema in Wistar rat hind paw at 20 mg/kg, ip administered 1 hr before carrageenan challenge measured after 5 hrs; format: functional; details: route intraperitoneal
Rattus norvegicus [2] = experiment: Antiinflammatory activity against carrageenan-induced plantar edema in Wistar rat hind paw at 40 mg/kg, ip administered 1 hr before carrageenan challenge measured after 5 hrs; format: functional; details: route intraperitoneal
Rattus norvegicus [3] = experiment: Antiinflammatory activity against carrageenan-induced plantar edema in Wistar rat hind paw at 40 mg/kg, ip administered 1 hr before carrageenan challenge measured after 3 hrs; format: functional; details: route intraperitoneal
Rattus norvegicus [4] = experiment: Antiinflammatory activity against carrageenan-induced plantar edema in Wistar rat hind paw at 80 mg/kg, ip administered 1 hr before carrageenan challenge measured after 3 hrs; format: functional; details: route intraperitoneal
Rattus norvegicus [5] = experiment: Antiinflammatory activity against carrageenan-induced plantar edema in Wistar rat hind paw at 80 mg/kg, ip administered 1 hr before carrageenan challenge measured after 1 hrs; format: functional; details: route intraperitoneal
Rattus norvegicus [6] = experiment: Antiinflammatory activity against carrageenan-induced plantar edema in Wistar rat hind paw at 20 mg/kg, ip administered 1 hr before carrageenan challenge measured after 3 hrs; format: functional; details: route intraperitoneal
Rattus norvegicus [7] = experiment: Antiinflammatory activity against carrageenan-induced plantar edema in Wistar rat hind paw at 80 mg/kg, ip administered 1 hr before carrageenan challenge measured after 5 hrs; format: functional; details: route intraperitoneal
Rattus norvegicus [8] = experiment: Antiinflammatory activity against carrageenan-induced plantar edema in Wistar rat hind paw at 20 mg/kg, ip administered 1 hr before carrageenan challenge measured after 1 hrs; format: functional; details: route intraperitoneal
Rattus norvegicus [9] = experiment: Antiinflammatory activity against carrageenan-induced plantar edema in Wistar rat hind paw at 40 mg/kg, ip administered 1 hr before carrageenan challenge measured after 1 hrs; format: functional; details: route intraperitoneal
Uterus [10] = experiment: Antispasmodic activity against oxytocin-induced contraction in Wistar rat uterus at 2.2 ug/ml; format: functional, tissue-based
Uterus [11] = experiment: Antispasmodic activity against oxytocin-induced contraction in Wistar rat uterus at 1.1 ug/ml; format: functional, tissue-based
Rattus norvegicus [12] = experiment: Antiinflammatory activity against carrageenan-induced plantar edema in Wistar rat hind paw at 66 mg/kg, ip administered 1 hr before carrageenan challenge measured after 3 hrs; format: functional; details: route intraperitoneal
Rattus norvegicus [13] = experiment: Antiinflammatory activity against carrageenan-induced plantar edema in Wistar rat hind paw at 33 mg/kg, ip administered 1 hr before carrageenan challenge measured after 3 hrs; format: functional; details: route intraperitoneal

| SMILES | Activity (Rattus norvegicus [1]) [%] | Activity (Rattus norvegicus [2]) [%] | Activity (Rattus norvegicus [3]) [%] | Activity (Rattus norvegicus [4]) [%] | Activity (Rattus norvegicus [5]) [%] | Activity (Rattus norvegicus [6]) [%] | Activity (Rattus norvegicus [7]) [%] | Activity (Rattus norvegicus [8]) [%] | Activity (Rattus norvegicus [9]) [%] | Activity (Uterus [10]) | Activity (Uterus [11]) | Activity (Rattus norvegicus [12]) [%] | Activity (Rattus norvegicus [13]) [%] |
| --- | --- | --- | --- | --- | --- | --- | --- | --- | --- | --- | --- | --- | --- |
| CC1=CCC2CC1C2(C)C (stereo not drawn) [ALPHA-PINENE] | -1.6 | 14 | 21 | 26.2 | 19 | 8.9 | 13.2 | 5.6 | 20.4 |  |  |  |  |
| C=C1CCC2CC1C2(C)C (stereo not drawn) [BETA-PINENE] | 16.7 | 14.9 | 19.2 | 32.2 | 8.7 | 15.1 | 31.9 | 20.5 | 27.5 |  |  |  |  |
| CC1=CCC2C(C1)C2(C)C (configuration not stated) [CARENE] |  |  |  |  |  |  |  |  |  | Active | Active | 77 | 50.3 |
